Legend:
[1] = target: T1, recombinant human PARP (Homo sapiens, UniProt P09874); assay: PARP enzyme activity inhibitory action (3H-NAD poly ADP-ribosylation, filter assay); format: biochemical; details: 25° C., 15 min
T1 construct: purchased Trevigen 4667-02X
Description: After incubation at 25° C. for 15 min., the reaction was stopped with 20% trichloroacetic acid, and the resulting acid insoluble fraction was adsorbed to a GF/B filter. The filter was washed several times with 5% trichloroacetic acid, and the radiation dose on the filter was measured with a liquid scintillation counter.

[2] = Determination of stability in physiological saline at room temperature (residual ratio by HPLC); format: physicochemical; details: for Residual rate (%) under non-shielding 7 days later / Residual rate (%) under shielding 7 days later: day 7; for Residual rate (%) under non-shielding 11 days later / Residual rate (%) under shielding 11 days later: day 11
Description: Each compound was dissolved in physiological saline to give solutions having a concentration of 1.0 mg/mL or 10 mg/mL. They were preserved at room temperature, under shielding or non-shielding and the residual ratio at day 7 and day 11 was measured by HPLC. […]
column: Inertsil ODS3V (GL Science Inc.)
Mobile phase: methanol: 0.01 mol/L aqueous ammonium acetate solution detection wavelength: 254 nm

[3] = 1.0 mg/mL in physiological saline
[4] = 10 mg/mL in physiological saline

T1 sequence (P09874 whole entry): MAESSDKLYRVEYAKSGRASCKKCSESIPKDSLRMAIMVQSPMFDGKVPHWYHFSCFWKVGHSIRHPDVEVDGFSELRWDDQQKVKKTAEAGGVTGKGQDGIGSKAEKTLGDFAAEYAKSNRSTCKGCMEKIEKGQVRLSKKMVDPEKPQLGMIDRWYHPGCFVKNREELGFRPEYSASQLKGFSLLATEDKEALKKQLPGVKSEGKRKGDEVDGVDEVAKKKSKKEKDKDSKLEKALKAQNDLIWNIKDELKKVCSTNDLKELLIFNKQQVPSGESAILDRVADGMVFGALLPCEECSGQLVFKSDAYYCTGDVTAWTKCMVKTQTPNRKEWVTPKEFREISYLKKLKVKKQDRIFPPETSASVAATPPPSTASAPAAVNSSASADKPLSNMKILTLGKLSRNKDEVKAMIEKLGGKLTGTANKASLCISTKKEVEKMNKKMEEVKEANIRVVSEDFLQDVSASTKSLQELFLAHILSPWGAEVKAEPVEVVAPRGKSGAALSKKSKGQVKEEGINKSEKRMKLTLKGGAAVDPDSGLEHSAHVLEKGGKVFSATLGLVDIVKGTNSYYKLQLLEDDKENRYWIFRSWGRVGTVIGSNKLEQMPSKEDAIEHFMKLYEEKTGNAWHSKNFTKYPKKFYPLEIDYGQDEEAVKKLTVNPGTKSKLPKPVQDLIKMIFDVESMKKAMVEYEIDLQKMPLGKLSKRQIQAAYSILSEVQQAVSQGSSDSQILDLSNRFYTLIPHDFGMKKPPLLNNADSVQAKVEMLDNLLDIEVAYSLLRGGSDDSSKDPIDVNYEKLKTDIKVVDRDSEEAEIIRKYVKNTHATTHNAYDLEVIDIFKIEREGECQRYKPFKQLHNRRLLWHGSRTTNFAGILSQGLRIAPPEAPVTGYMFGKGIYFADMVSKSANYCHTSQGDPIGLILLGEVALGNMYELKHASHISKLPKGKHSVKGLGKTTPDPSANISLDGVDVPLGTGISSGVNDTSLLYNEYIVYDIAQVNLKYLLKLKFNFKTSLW

Cc1cccc2c(=O)[nH]c(C3CCN(CCO)C3)cc12 (single isomer, unassigned; (-)) [Ex. 37a, (−)-3-[1-(2-hydroxylethyl)pyrrolidin-3-yl]-5-methyl-2H-isoquinolin-1-one]
IC50 [1]: 0.02 µM | melting point: 137.3 to 138.6 °C

Cc1cccc2c(=O)[nH]c(C3CCN(CCO)CC3)cc12 [Ex. 2a, 3-[1-(2-hydroxyethyl)piperidin-4-yl]-5-methyl-2H-isoquinolin-1-one]
Residual rate (%) under non-shielding 7 days later [2, 3]: ≈100% | Residual rate (%) under non-shielding 11 days later [2, 3]: ≈100% | Residual rate (%) under shielding 7 days later [2, 3]: ≈100% | Residual rate (%) under shielding 11 days later [2, 3]: ≈100% | Residual rate (%) under non-shielding 7 days later [2, 4]: ≈100% | Residual rate (%) under non-shielding 11 days later [2, 4]: ≈100% | Residual rate (%) under shielding 7 days later [2, 4]: ≈100% | Residual rate (%) under shielding 11 days later [2, 4]: ≈100% | IC50 [1]: 0.017 µM

Cc1cccc2c(=O)[nH]c(CCN3CC[C@@H](O)C3)cc12 [Ex. 1a, (R)-3-[2-(3-hydroxypyrrolidin-1-yl)ethyl]-5-methyl-2H-isoquinolin-1-one]
Residual rate (%) under non-shielding 7 days later [2, 3]: ≈100% | Residual rate (%) under non-shielding 11 days later [2, 3]: ≈100% | Residual rate (%) under shielding 7 days later [2, 3]: ≈100% | Residual rate (%) under shielding 11 days later [2, 3]: ≈100% | Residual rate (%) under non-shielding 7 days later [2, 4]: ≈100% | Residual rate (%) under non-shielding 11 days later [2, 4]: ≈100% | Residual rate (%) under shielding 7 days later [2, 4]: ≈100% | Residual rate (%) under shielding 11 days later [2, 4]: ≈100% | IC50 [1]: 0.039 µM

Cc1cccc2c(=O)[nH]c(CCN3CCC(O)C3)cc12 (stereo not shown) [Ex. 5a, 3-[2-(3-hydroxypyrrolidin-1-yl)ethyl]-5-methyl-2H-isoquinolin-1-one]
IC50 [1]: 0.05 µM

Cc1cccc2c(=O)[nH]c(C3CCN(CCCO)CC3)cc12 [Example 23a, 5-methyl-3-[1-(3-hydroxypropyl)piperidin-4-yl]-2H-isoquinolin-1-one]
melting point: 197 to 199 °C

O=c1[nH]c(C2CCN(CCO)CC2)cc2ccccc12 [Ex. 9a, 3-[1-(2-hydroxyethyl)piperidin-4-yl]-2H-isoquinolin-1-one]
IC50 [1]: 0.044 µM

Cc1cccc2c(=O)[nH]c(C3CCN(CCO)C3)cc12 (single isomer, unassigned; (+)) [Ex. 38a, (+)-3-[1-(2-hydroxylethyl)pyrrolidin-3-yl]-5-methyl-2H-isoquinolin-1-one]
IC50 [1]: 0.029 µM | melting point: 137 to 138.6 °C

Cc1cccc2c(=O)[nH]c(CCN3CCCC(O)C3)cc12 (stereo not shown) [Example 32a, 3-[2-(3-hydroxypiperidin-1-yl)ethyl]-5-methyl-2H-isoquinolin-1-one]
melting point: 184 to 185 °C

Cc1cccc2c(=O)[nH]c(CCN3CCC[C@@H](O)C3)cc12 [Example 35a, (R)-3-[2-(3-hydroxypiperidin-1-yl)ethyl]-5-methyl-2H-isoquinolin-1-one]
melting point: 180 to 181 °C

Cc1cccc2c(=O)[nH]c(CCCN3CCC(O)C3)cc12 (stereo not shown) [Ex. 4a, 3-[3-(3-hydroxypyrrolidin-1-yl)propyl]-5-methyl-2H-isoquinolin-1-one]
IC50 [1]: 0.046 µM

Cc1cccc2c(=O)[nH]c(CCN3CCC[C@@H]3CO)cc12 [Ex. 36a, (R)-3-[2-(2-hydroxymethylpyrrolidin-1-yl)ethyl]-5-methyl-2H-isoquinolin-1-one]
Residual rate (%) under non-shielding 7 days later [2, 3]: ≈100% | Residual rate (%) under non-shielding 11 days later [2, 3]: ≈100% | Residual rate (%) under shielding 7 days later [2, 3]: ≈100% | Residual rate (%) under shielding 11 days later [2, 3]: ≈100% | Residual rate (%) under non-shielding 7 days later [2, 4]: ≈100% | Residual rate (%) under non-shielding 11 days later [2, 4]: ≈100% | Residual rate (%) under shielding 7 days later [2, 4]: ≈100% | Residual rate (%) under shielding 11 days later [2, 4]: ≈100% | IC50 [1]: 0.029 µM

Cc1cccc2c(=O)[nH]c(C3CCN(CCO)C3)cc12 (stereo not shown) [Ex. 28a, 3-[1-(2-hydroxyethyl)pyrrolidin-3-yl]-5-methyl-2H-isoquinolin-1-one]
IC50 [1]: 0.035 µM

Cc1cccc2c(=O)[nH]c(CCN3CC[C@H](O)C3)cc12 [Ex. 34a, (S)-3-[2-(3-hydroxypyrrolidin-1-yl)ethyl]-5-methyl-2H-isoquinolin-1-one]
IC50 [1]: 0.034 µM | melting point: 176 to 178 °C
